Test results reported in article PMC6685951, “Migration of Bacteriocins Across Gastrointestinal Epithelial and Vascular Endothelial Cells, as Determined Using In Vitro Simulations” (Scientific Reports, 2019).
Where a SMILES comes first, the peptide text is derived from it. Bridges are numbered along the chain shown (N, C = ends).

Legend:
Caco-2 cells [1] = experiment: LDH release assay, Caco-2; format: cell-based, human; settings: 24 h
Description: (§1) For viability and cytotoxicity studies, cells were seeded in 96-well flat-bottom culture plates (1 × 10^4 cells/well). To determine migration of nisin A, plantaricin 423 and bacST4SA across the gastrointestinal epithelial and vascular endothelial barriers, HUVEC and Caco-2 cells were grown on an 8 µm pore size tissue culture insert, as shown in Fig. 1. All cell culture experiments were done in triplicate and have been repeated more than three times.
HUVEC and Caco-2 cells were exposed to three different concentrations (25 µM, 50 µM and 100 µM) nisin A, plantaricin 423 and bacST4SA and the presence of extracellular LDH determined using the LDH release assay kit. Sterile ultrapure water was used as negative control (referred to as spontaneous LDH activity) and lysis buffer (10X) was used as positive control (referred to as maximum LDH activity). After incubating the cultures in the presence of the peptides for 24 h at 37 °C, culture supernatants were pipetted into a 96-well plate. Reaction mixture was added to the supernatants and plates were incubated at 25 °C for 30 min. Absorbance was measured at 490 nm and 680 nm, respectively. The percentage cytotoxicity was calculated as follows (1):1 %Cytotoxicity=(Compound−treatedLDHactivity)−(SpontaneousLDHactivity)/MaximumLDHactivity−SpontaneousLDHactivity×100

Caco-2 cells [2] = experiment: Neutral red viability assay, Caco-2; format: cell-based, human; settings: 24 h, 37 °C
Description: as §1
(§2) Cells were treated with different concentrations of the peptides as described for the XTT assay. Sterile ultrapure water was used as control. After incubation at 37 °C for 24 h, neutral red solution was added to the cells (10% of the culture volume). After 4 h of incubation at 37 °C, the medium was removed by aspiration and the cells were rinsed with neutral red fixative. The fixative was removed, the dye solubilized by adding […] and the cells were gently stirred for 10 min on a gyratory shaker. Absorbance readings were recorded at 540 nm and 690 nm, respectively, using a microtiter plate reader. The percentage viability was calculated as the absorbance of treated cells divided by the absorbance of untreated cells (AT/AC × 100).

Caco-2 cells [3] = experiment: XTT viability assay, Caco-2; format: cell-based, human; settings: 24 h, 37 °C
Description: as §1
(§3) Cells were grown in 100 µL of culture medium for 24 h at 37 °C. The bacteriocins were separately added to the cells at concentrations of 25 µM, 50 µM and 100 µM. Sterile ultrapure water was used as control. After 24 h of incubation at 37 °C, the reaction mixture containing PMS (N-methyl-dibenzopyrazine-methylsulfate/phenazine methosulphate) and XTT solution, was added to each well and incubated for 4 h at 37 °C. Absorbance readings were recorded at 450 nm, using a microtiter plate reader. The percentage viability was calculated as AT/AC × 100; where AT is the absorbance of peptide-treated cells and AC is the absorbance of control (untreated cells).

HUVEC [4] = experiment: XTT viability assay, HUVEC; format: cell-based, human; settings: 24 h, 37 °C
Description: as §1, §3

Caco-2 cell monolayer = experiment: Migration across Caco-2 monolayer on transmigration inserts; format: in vitro ADME, human; settings: 3 h
Description: as §1
HUVECs and Caco-2 cells were seeded onto transmigration inserts (Fig. 1) at a cell density of 1 × 10^5 cells/insert (200 µL). Inserts were carefully placed in a 24-well tissue culture plate containing 700 µL cell growth media. […] The integrity of the monolayers was monitored by ensuring trans-epithelial electrical resistance (TEER) readings remained above 300 Ω throughout the experiment (Millicell-ERS volt-ohm meter, Merck)[51],[52],[62]. […] Transmigration inserts containing no monolayer, was used to determine the total fluorescence. Samples were incubated for 3 h while absorbance was measured at 490 nm every 30 min using a microplate reader. Before each reading, inserts were removed and placed into new microplates containing fresh media. […]
The percentage of peptide that attached to, or entered the cells was quantified by subtracting the sum of migrated peptide (eq. 4) and retained peptide (eq. 5) from the total fluorescence. […]

HUVEC [5] = experiment: Neutral red viability assay, HUVEC; format: cell-based, human; settings: 24 h, 37 °C
Description: as §1, §2

Q: CC(C)C[C@@H]1NC(=O)[C@H](Cc2c[nH]cn2)NC(=O)[C@H](CO)NC(=O)[C@H](C(C)C)NC(=O)[C@H](CO)NC(=O)[C@@H](NC(=O)[C@H](CO)NC(=O)[C@H](Cc2ccccc2)NC(=O)[C@H](C)NC(=O)[C@H](CCC(N)=O)NC(=O)CNC(=O)[C@H](Cc2c[nH]c3ccccc23)NC(=O)[C@H](CC(N)=O)NC(=O)[C@@H](NC(=O)[C@H](CO)NC(=O)[C@@H]2CSSC[C@H](NC(=O)[C@@H](NC(=O)[C@@H](NC(=O)CNC(=O)[C@H](CC(N)=O)NC(=O)CNC(=O)[C@H](Cc3ccc(O)cc3)NC(=O)[C@H](Cc3ccc(O)cc3)NC(=O)[C@@H](N)CCCCN)C(C)C)[C@@H](C)O)C(=O)NCC(=O)N[C@@H](CCCCN)C(=O)N[C@@H](Cc3c[nH]cn3)C(=O)N[C@@H](CO)C(=O)N2)C(C)C)CSSC[C@@H](C(=O)O)NC(=O)[C@H](CCCCN)NC(=O)CNC(=O)[C@H](Cc2c[nH]cn2)NC(=O)CNC(=O)[C@H](Cc2ccccc2)NC(=O)[C@H](CC(N)=O)NC(=O)[C@H](C)NC1=O [plantaricin 423] (H-KYYGNGVTCGKHSCSVNWGQAFSCSVSHLANFGHGKC-OH; disulfide 9-14, 24-37; N-terminus and C-terminus assumed) was tested. Which “cytotoxicity level (LDH release)” value (Caco-2 cells [1]; Caco-2, 100 µM, 37 °C, percentage of maximum LDH release (lysis buffer = 100%)) did it give?
A: Its value is 17%.

Q: And the “toxicity (LDH release)” value (Caco-2 cells [1]; Caco-2, concentrations up to 100 µM)?
A: The value was “minimal toxicity”.

Q: And the “cell viability (neutral red)” value (Caco-2 cells [2]; Caco-2, 25 µM and 50 µM (up to 50 µM))?
A: Its value is “did not cause significant decreases”.

Q: And the “cell viability (neutral red)” value (Caco-2 cells [2]; Caco-2, 100 µM)?
A: The value was “slight reduction”.

Q: And the “cell viability (XTT)” value (Caco-2 cells [3]; Caco-2, 25 µM and 50 µM (up to 50 µM), absorbance 450 nm)?
A: The value was “did not cause significant decreases”.

Q: And the “cell viability (XTT)” value (Caco-2 cells [3]; Caco-2, 100 µM)?
A: Its value is “slight reduction”.

Q: And the “cell viability (XTT)” value (HUVEC [4]; 25 µM and 50 µM (up to 50 µM), absorbance 450 nm)?
A: Its value is “did not cause significant decreases”.

Q: And the “cell viability (XTT)” value (HUVEC [4]; 100 µM)?
A: Its value is “slight reduction”.

Q: And the “percentage attached and/or entered peptide” value (Caco-2 cell monolayer; Caco-2, labelled peptide 50 µM, total fluorescence minus migrated and residual peptide)?
A: The value was 11%.

Q: What about the migrated peptide (Caco-2 cell monolayer; Caco-2 monolayer on 8 µm pore insert, apical addition, NHS-fluorescein labelled peptide 50 µM, 37 °C, TEER above 300 Ω, read at 490 nm, % of no-monolayer control, triplicate) of the same compound?
A: Its migrated peptide is 85%.

Q: And the “cell viability (neutral red)” value (HUVEC [5]; 25 µM and 50 µM (up to 50 µM))?
A: Its value is “did not cause significant decreases”.

Q: And the “cell viability (neutral red)” value (HUVEC [5]; 100 µM)?
A: The value was “slight reduction”.
